Source: the supplement of paper PMC13380429

What was measured:
Conditions in all cases: 72 h
[1] = tested on: Caco-2; experiment: cell viability relative to DMSO; higher = less toxic
[2] = tested on: HepG2; experiment: as above
[3] = tested on: U2OS; experiment: as above
[4] = tested on: Vero E6; experiment: as above
[5] = tested on: Caco-2; experiment: relative viability EC50 (midpoint between 100% and the lowest measured viability); higher = less toxic
[6] = tested on: HepG2; experiment: as above
[7] = tested on: U2OS; experiment: as above
[8] = tested on: Vero E6; experiment: as above
[9] = tested on: Caco-2; experiment: drug sensitivity score (DSS) for viability; higher = more toxic; extreme values may be limits of the assay
[10] = tested on: HepG2; experiment: as above
[11] = tested on: U2OS; experiment: as above
[12] = tested on: Vero E6; experiment: as above
[13] = tested on: Calu-3; experiment: cell viability relative to DMSO; higher = less toxic
[14] = tested on: Calu-3; experiment: relative viability EC50 (midpoint between 100% and the lowest measured viability); higher = less toxic
[15] = tested on: Calu-3; experiment: drug sensitivity score (DSS) for viability; higher = more toxic; extreme values may be limits of the assay

CN(C)CCOC(=O)C(c1ccccc1)C1(O)CCCC1 (configuration not stated) [cyclopentolate]
cell viability ([1]; 1 nM): 96.9% | cell viability ([1]; 10 nM): 97.6% | cell viability ([1]; 100 nM): 93% | cell viability ([1]; 1000 nM): 100% | cell viability ([1]; 10000 nM): 102% | cell viability ([2]; 1 nM): 103% | cell viability ([2]; 10 nM): 115% | cell viability ([2]; 100 nM): 97.6% | cell viability ([2]; 1000 nM): 111% | cell viability ([2]; 10000 nM): 91.3% | cell viability ([3]; 1 nM): 100% | cell viability ([3]; 10 nM): 96.5% | cell viability ([3]; 100 nM): 98.4% | cell viability ([3]; 1000 nM): 97.9% | cell viability ([3]; 10000 nM): 98.5% | cell viability ([4]; 1 nM): 99.1% | cell viability ([4]; 10 nM): 103% | cell viability ([4]; 100 nM): 102% | cell viability ([4]; 1000 nM): 101% | cell viability ([4]; 10000 nM): 107% | relative viability EC50 [5]: > 10 µM | relative viability EC50 [6]: > 10 µM | relative viability EC50 [7]: > 10 µM | relative viability EC50 [8]: > 10 µM | drug sensitivity score [9]: 0 | drug sensitivity score [10]: 0 | drug sensitivity score [11]: 0 | drug sensitivity score [12]: 0

Nc1nc2c(ncn2COCCO)c(=O)[nH]1 [acyclovir]
cell viability ([13]; 1 nM): 95.3% | cell viability ([13]; 10 nM): 101% | cell viability ([13]; 100 nM): 102% | cell viability ([13]; 1000 nM): 106% | cell viability ([13]; 10000 nM): 119% | cell viability ([2]; 1 nM): 96.3% | cell viability ([2]; 10 nM): 92% | cell viability ([2]; 100 nM): 95.1% | cell viability ([2]; 1000 nM): 94.7% | cell viability ([2]; 10000 nM): 96.3% | cell viability ([3]; 1 nM): 91.6% | cell viability ([3]; 10 nM): 101% | cell viability ([3]; 100 nM): 94.7% | cell viability ([3]; 1000 nM): 99.7% | cell viability ([3]; 10000 nM): 104% | cell viability ([4]; 1 nM): 110% | cell viability ([4]; 10 nM): 92.7% | cell viability ([4]; 100 nM): 98.3% | cell viability ([4]; 1000 nM): 98% | cell viability ([4]; 10000 nM): 101% | relative viability EC50 [14]: > 10 µM | relative viability EC50 [6]: > 10 µM | relative viability EC50 [7]: > 10 µM | relative viability EC50 [8]: > 10 µM | drug sensitivity score [15]: 0 | drug sensitivity score [10]: 0 | drug sensitivity score [11]: 0 | drug sensitivity score [12]: 0

OC[C@H]1O[C@@H](Oc2ccc(O)cc2)[C@H](O)[C@@H](O)[C@@H]1O [arbutin]
cell viability ([1]; 1 nM): 95.7% | cell viability ([1]; 10 nM): 101% | cell viability ([1]; 100 nM): 105% | cell viability ([1]; 1000 nM): 96% | cell viability ([1]; 10000 nM): 103% | cell viability ([2]; 1 nM): 99.2% | cell viability ([2]; 10 nM): 109% | cell viability ([2]; 100 nM): 98.6% | cell viability ([2]; 1000 nM): 105% | cell viability ([2]; 10000 nM): 103% | cell viability ([3]; 1 nM): 97.9% | cell viability ([3]; 10 nM): 102% | cell viability ([3]; 100 nM): 102% | cell viability ([3]; 1000 nM): 97.5% | cell viability ([3]; 10000 nM): 108% | cell viability ([4]; 1 nM): 98.6% | cell viability ([4]; 10 nM): 98% | cell viability ([4]; 100 nM): 91.6% | cell viability ([4]; 1000 nM): 94.6% | cell viability ([4]; 10000 nM): 94.5% | relative viability EC50 [5]: > 10 µM | relative viability EC50 [6]: > 10 µM | relative viability EC50 [7]: > 10 µM | relative viability EC50 [8]: > 10 µM | drug sensitivity score [9]: 0 | drug sensitivity score [10]: 0 | drug sensitivity score [11]: 0 | drug sensitivity score [12]: 0

Cc1ccc([N+](=O)[O-])cc1O [2-methyl-5-nitrophenol]
cell viability ([1]; 1 nM): 96.9% | cell viability ([1]; 10 nM): 105% | cell viability ([1]; 100 nM): 101% | cell viability ([1]; 1000 nM): 94.3% | cell viability ([1]; 10000 nM): 95.3% | cell viability ([2]; 1 nM): 106% | cell viability ([2]; 10 nM): 91% | cell viability ([2]; 100 nM): 99.4% | cell viability ([2]; 1000 nM): 100% | cell viability ([2]; 10000 nM): 102% | cell viability ([3]; 1 nM): 108% | cell viability ([3]; 10 nM): 96% | cell viability ([3]; 100 nM): 101% | cell viability ([3]; 1000 nM): 96.1% | cell viability ([3]; 10000 nM): 102% | cell viability ([4]; 1 nM): 99.9% | cell viability ([4]; 10 nM): 94.4% | cell viability ([4]; 100 nM): 94.3% | cell viability ([4]; 1000 nM): 98.6% | cell viability ([4]; 10000 nM): 96.2% | relative viability EC50 [5]: > 10 µM | relative viability EC50 [6]: > 10 µM | relative viability EC50 [7]: > 10 µM | relative viability EC50 [8]: > 10 µM | drug sensitivity score [9]: 0 | drug sensitivity score [10]: 0 | drug sensitivity score [11]: 0 | drug sensitivity score [12]: 0

O=C1N[C@@H]2[C@@H](O)[C@@H](O)[C@H](O)[C@@H](CO)N2C1=O [kifunensine]
cell viability ([1]; 1 nM): 98.5% | cell viability ([1]; 10 nM): 105% | cell viability ([1]; 100 nM): 91.8% | cell viability ([1]; 1000 nM): 75.1% | cell viability ([1]; 10000 nM): 67.5% | cell viability ([13]; 1 nM): 100% | cell viability ([13]; 10 nM): 106% | cell viability ([13]; 100 nM): 103% | cell viability ([13]; 1000 nM): 90.7% | cell viability ([13]; 10000 nM): 93% | cell viability ([2]; 1 nM): 95.6% | cell viability ([2]; 10 nM): 103% | cell viability ([2]; 100 nM): 99.4% | cell viability ([2]; 1000 nM): 98.7% | cell viability ([2]; 10000 nM): 82.6% | cell viability ([3]; 1 nM): 104% | cell viability ([3]; 10 nM): 102% | cell viability ([3]; 100 nM): 96.2% | cell viability ([3]; 1000 nM): 97.4% | cell viability ([3]; 10000 nM): 99% | cell viability ([4]; 1 nM): 107% | cell viability ([4]; 10 nM): 89.7% | cell viability ([4]; 100 nM): 96.2% | cell viability ([4]; 1000 nM): 94.5% | cell viability ([4]; 10000 nM): 84.2% | relative viability EC50 [14]: > 10 µM | relative viability EC50 [6]: > 10 µM | relative viability EC50 [7]: > 10 µM | relative viability EC50 [8]: > 10 µM | drug sensitivity score [9]: 4.8 | drug sensitivity score [15]: 0 | drug sensitivity score [10]: 0.5 | drug sensitivity score [11]: 0 | drug sensitivity score [12]: 0.3

CCCCCCCCCCCCCCCCCCO [octadecan-1-ol]
cell viability ([4]; 1 nM): 99.2% | cell viability ([4]; 10 nM): 103% | cell viability ([4]; 100 nM): 102% | cell viability ([4]; 1000 nM): 94.2% | cell viability ([4]; 10000 nM): 107% | relative viability EC50 [8]: > 10 µM | drug sensitivity score [12]: 0

CCCCC(=O)NCCc1c(Cc2ccccc2)[nH]c2ccccc12 [DH-97]
cell viability ([1]; 1 nM): 102% | cell viability ([1]; 10 nM): 101% | cell viability ([1]; 100 nM): 96.8% | cell viability ([1]; 1000 nM): 92.3% | cell viability ([1]; 10000 nM): 96% | cell viability ([2]; 1 nM): 90.8% | cell viability ([2]; 10 nM): 100% | cell viability ([2]; 100 nM): 100% | cell viability ([2]; 1000 nM): 105% | cell viability ([2]; 10000 nM): 103% | cell viability ([3]; 1 nM): 100% | cell viability ([3]; 10 nM): 94.7% | cell viability ([3]; 100 nM): 99.9% | cell viability ([3]; 1000 nM): 95.1% | cell viability ([3]; 10000 nM): 96.7% | cell viability ([4]; 1 nM): 102% | cell viability ([4]; 10 nM): 98.7% | cell viability ([4]; 100 nM): 99.8% | cell viability ([4]; 1000 nM): 97% | cell viability ([4]; 10000 nM): 93.8% | relative viability EC50 [5]: > 10 µM | relative viability EC50 [6]: > 10 µM | relative viability EC50 [7]: > 10 µM | relative viability EC50 [8]: > 10 µM | drug sensitivity score [9]: 0 | drug sensitivity score [10]: 0 | drug sensitivity score [11]: 0 | drug sensitivity score [12]: 0

CNCCC=C1c2ccccc2CCc2ccccc21 [nortriptyline]
cell viability ([1]; 1 nM): 108% | cell viability ([1]; 10 nM): 86.1% | cell viability ([1]; 100 nM): 96.4% | cell viability ([1]; 1000 nM): 97.7% | cell viability ([1]; 10000 nM): 70% | cell viability ([13]; 1 nM): 100% | cell viability ([13]; 10 nM): 98.7% | cell viability ([13]; 100 nM): 99.4% | cell viability ([13]; 1000 nM): 96.5% | cell viability ([13]; 10000 nM): 82.1% | cell viability ([2]; 1 nM): 110% | cell viability ([2]; 10 nM): 106% | cell viability ([2]; 100 nM): 112% | cell viability ([2]; 1000 nM): 119% | cell viability ([2]; 10000 nM): 65% | cell viability ([3]; 1 nM): 99.5% | cell viability ([3]; 10 nM): 96.8% | cell viability ([3]; 100 nM): 98.1% | cell viability ([3]; 1000 nM): 97.4% | cell viability ([3]; 10000 nM): 93.8% | cell viability ([4]; 1 nM): 106% | cell viability ([4]; 10 nM): 106% | cell viability ([4]; 100 nM): 102% | cell viability ([4]; 1000 nM): 90% | cell viability ([4]; 10000 nM): 79.8% | relative viability EC50 [14]: > 10 µM | relative viability EC50 [7]: > 10 µM | relative viability EC50 [8]: > 10 µM | drug sensitivity score [9]: 1.6 | drug sensitivity score [15]: 0.9 | drug sensitivity score [10]: 1 | drug sensitivity score [11]: 0 | drug sensitivity score [12]: 1.6

Cn1c(-c2ccccc2)nnc1S(C)(=O)=O
cell viability ([1]; 1 nM): 93% | cell viability ([1]; 10 nM): 85.8% | cell viability ([1]; 100 nM): 103% | cell viability ([1]; 1000 nM): 103% | cell viability ([1]; 10000 nM): 103% | cell viability ([2]; 1 nM): 97.4% | cell viability ([2]; 10 nM): 99.1% | cell viability ([2]; 100 nM): 99.1% | cell viability ([2]; 1000 nM): 93.9% | cell viability ([2]; 10000 nM): 94.5% | cell viability ([3]; 1 nM): 99.4% | cell viability ([3]; 10 nM): 96.9% | cell viability ([3]; 100 nM): 96.4% | cell viability ([3]; 1000 nM): 99.3% | cell viability ([3]; 10000 nM): 103% | cell viability ([4]; 1 nM): 89.6% | cell viability ([4]; 10 nM): 92.9% | cell viability ([4]; 100 nM): 99.3% | cell viability ([4]; 1000 nM): 94.9% | cell viability ([4]; 10000 nM): 105% | relative viability EC50 [5]: > 10 µM | relative viability EC50 [6]: > 10 µM | relative viability EC50 [7]: > 10 µM | relative viability EC50 [8]: > 10 µM | drug sensitivity score [9]: 0 | drug sensitivity score [10]: 0 | drug sensitivity score [11]: 0 | drug sensitivity score [12]: 0
